Publication PMC11071266, “The putative proton-coupled organic cation antiporter is involved in uptake of triptans into human brain capillary endothelial cells” (Fluids and Barriers of the CNS, 2024)
“Also recorded” adds a separate entry of the source.

Key:
H^+/OC antiporter [1] = assay: Cellular uptake into hCMEC/D3 cells in absence or presence of pyrilamine or oxycodone; assay type: cell-based, human; details: triptan 50 µM, asterisks = P level; for Inhibition by oxycodone (of the compound's uptake): 500 µM oxycodone; for Inhibition by pyrilamine (of the compound's uptake): 500 µM pyrilamine
Description: (§1) The cells were equilibrated in hHBSS with or without inhibitor for 15 min (37 °C, 90 rpm). The compound of interest was spiked into the hHBSS followed by incubation for a designated time. The timeframe of the initial uptake rate was validated into hCMEC/D3 cells (Fig. 1 and Additional file 1). The experiment was terminated by washing three times with ice-cold HBSS supplemented with 0.0375% (v/v) sodium bicarbonate.
The hCMEC/D3 cells were used for time-dependent uptake studies between passage 3–5 (pyrilamine), 7–9 (oxycodone), 6–8 (almotriptan), and 24–31 (eletriptan).
The hCMEC/D3 cells were used for uptake studies of almotriptan, eletriptan, and sumatriptan in the presence of pyrilamine and oxycodone between passage 21–23.
(§2) The cells were permeabilized using 50% (v/v) acetonitrile (HPLC LC–MS grade, VWR International S.A.S, Soeborg, Denmark) in ultrapure water (ELGA, Buckinghamshire, England) for 10 min at room temperature. Thereafter, the cells were scraped off the bottom of the wells and transferred to HPLC vials. Samples from bidirectional transport experiments were transferred directly into HPLC vials. All samples were stored at – 18 °C for later analysis. Calibration curves with standards in the range of 1 or 5–1000 ng/mL were dissolved in 50% (v/v) acetonitrile in ultrapure water (ELGA, Buckinghamshire, England), or in hHBSS(-) for analysis of bidirectional transport samples.
(§3) Liquid chromatography tandem mass spectrometry (LC–MS/MS) were performed using electrospray ionization in positive mode on a micromass Quattro micro™ API tandem quadrupole mass spectrometer (Waters, MA, USA) or an Ultivo triple quadrupole mass spectrometer (Agilent Technologies, CA, USA) coupled to Agilent HPLC system 1100 Series or 1260 Series (Agilent Technologies, CA, USA California), respectively. Applied columns were an InfinityLab Poroshell 120 EC-C18 (3.0 × 50 mm; 2.7 micron, Agilent Technologies, CA, USA) or a Kinetex 2.6 μm XB-C18 (100 Å, 100 × 4.6 mm, Phenomenex Inc., CA, USA). An overview of applied HPLC and MS/MS parameters can be found in Additional file 2 and Additional file 3, respectively. The data acquisition software was MassLynx (V4.1, Waters, MA, USA).

H^+/OC antiporter [2] = assay: Concentration-dependent cellular uptake into hCMEC/D3 cells (Michaelis-Menten kinetics); assay type: cell-based, human
Description: The immortalized human cerebral microvascular endothelial cell line (hCMEC/D3) was maintained in T75-flasks coated with collagen type I from calf skin (C9791, 18.7 μg/mL) and cultured in EBM®-2 medium (Lonza, Basel, Schweiz) supplemented with 5% (v/v) fetal bovine serum (FBS, 10270, Life Technologies, CA, USA or SH3008803, ThermoFisher Scientific, MA, USA), 100 U/mL penicillin and 100 μg/ml streptomycin, 1 ng/mL human basic fibroblast growth factor (bFGF), 1.4 μM hydrocortisone, 1% (v/v) chemically defined lipid concentrate (ThermoFisher Scientific, MA, USA), 10 mM N-2-hydroxyethylpiperazine-N-2-ethane sulfonic acid (HEPES) and 5 μg/mL ascorbic acid (5% CO2, 37 °C). […] For experiments, cells were seeded into 24-well plates (6.7·10^4 cells/cm^2) and cultured for four continuous days. The cells were used for experiments between passage 3–31.
as §1
To assess the concentration-dependent uptake, the uptake flux was fitted to the Michaelis–Menten equation, Eq. 1.1 Jss=Jmax[S]/Km+[S] where Jss represents flux under steady state, Jmax is the maximal flux, [S] is the substrate concentration, and Km is the Michaelis–Menten constant.
The hCMEC/D3 cells were used for concentration-dependent uptake studies between passage 21–23 (pyrilamine), 11–13 (oxycodone), 12–14 (almotriptan), 16–18 (eletriptan), and 12–14 (sumatriptan).
as §2, §3
The protein content of hCMEC/D3 cells was determined for normalization purposes. Cells were washed with ice-cold phosphate buffered saline following cell lysis in cell extraction buffer (FNN0011, Thermo Fisher Scientific, MA, USA) supplemented with 1 × cOmplete™ Protease Inhibitor Cocktail (04693116001, Roche, Basel, Schweiz), 1 mM phenylmethylsulfonyl fluoride, and […] for 30 min on ice.

[3] = C57, mouse, 1 µM
Description: C57 mice were used to prepare blank plasma and brain matrices throughout all binding studies.

In the case of `CN1CCC[C@@H]1Cc1c[nH]c2ccc(CCS(=O)(=O)c3ccccc3)cc12` [Eletriptan], the “Inhibition by oxycodone (of the compound's uptake)” value (H^+/OC antiporter [1]) is reported as “yes (*)”, the “Inhibition by oxycodone (of the compound's uptake)” value (H^+/OC antiporter [1]; listed as eletriptan) is reported as “inhibited the uptake of eletriptan in a statistically significant manner” and the “Inhibition by pyrilamine (of the compound's uptake)” value (H^+/OC antiporter [1]) is reported as “yes (****)”. For the same molecule, the “Inhibition by pyrilamine (of the compound's uptake)” value (H^+/OC antiporter [1]; listed as eletriptan) was “inhibited the uptake of eletriptan in a statistically significant manner; also recorded: almost be completely inhibited”, the “Concentration-dependent uptake (saturability)” value (H^+/OC antiporter [2]; hCMEC/D3 cells, tested concentration range) was “reaching saturation within a 500 µM concentration” and the “Association with H^+/OC antiporter” value (H^+/OC antiporter [2]; summary of uptake and inhibition studies in hCMEC/D3 cells) was “Substrate potent inhibitor”. For the same molecule, the Jmax (H^+/OC antiporter [2]; uptake into hCMEC/D3 cells) was 2.2 ± 0.7 nmol·min^−1·mg protein^−1, the Km (H^+/OC antiporter [2]; uptake into hCMEC/D3 cells, read-out: Apparent Km) was 89 ± 38 µM and the “fu,plasma” value [3] was 40%. For the same molecule, the “fu,brain” value ([3]; plasma) was 8.3%.
